Laboratory results: patent US7608716B2, “Pyrazolonaphthyridine derivative” (Aska Pharmaceutical Co., Ltd., priority 2002, dated 2009)

How the values were obtained:
[1] = tested on: actively sensitized guinea pigs; assay: Inhibition of antigen-induced immediate asthmatic response (airway resistance, Konzett-Rossler); type: in vivo, Hartley guinea pigs; settings: Cavia porcellus, oral, 60 minutes prior to antigen-challenge, reduction of increase in airway resistance, read-out: Inhibition of Asthmatic response ED50: mg/kg orally
Protocol: Male Hartley outbred guinea pigs were sensitized by administering intraperitoneally physiological saline (0.5 ml) containing ovalbumin (1 mg, antigen) and 5×10^9 inactivated Bordetella pertussis dead cells (adjuvant). Eleven to thirteen days after the first sensitization, 0.05 ml of an ovalbumin solution (1 mg/ml) (ovalbumin is dissolved in physiological saline) was administered to the lateroabdominal region of each guinea pig intracutaneously. An establishment of sensitization was checked relying on cutaneous reaction. Only guinea pigs wherein significant reddening responses occurred 5 to 10 minutes later were employed in the next measurement test for airway resistance.
The guinea pigs (3 animals per group) actively sensitized in the above step (1) were employed to measure for their airway pressure according to Konzett-Rossler method (Arch. Exp. Path. Pharmakol., 195, 71 (1940)).
Thirteen days after the final sensitization, guinea pigs fasted overnight, and were on the next day anesthetized with a pentobarbital solution (30 mg/1.2 ml/kg, dissolved in physiological saline, intraperitoneal administration). After the guinea pigs were fixed in a supine position, their trachea was incised followed by insertion with one port of a 4-port cannula. Among the remaining 3 ports, 2 ports were connected to an artificial respirator (Model 683, Harvard). The animals were ventilated with 10 ml/kg of air per ventilation at a rate of 60 beats/min via the artificial respirator from the cannula. One port remainder was connected to a respiratory amplifier (AR-601G, Nihon Kohden, Japan) via an airflow resistance tube (TV-241T, Nihon Kohden, Japan) and a differential pressure transducer (TP-602T, Nihon Kohden, Japan) connected with a control box (RY-111S, Nihon Kohden, Japan). From a catheter inserted into a left carotid artery, blood pressures were monitored with a blood pressure measurement unit (AP641G, NEC Corp., Japan) via a blood pressure transducer (TP-300T, Nihon Kohden, Japan), and heart rates were recorded on a thermal recorder (WT-685G, Nihon Kohden, Japan), relying on blood pressure pulse waves after being led to a cardiograph unit (AT601G, Nihon Kohden, Japan).
After airway pressure became stable, an ovalbumin solution (1 mg/ml, dissolved in physiological saline) was administered at a dose of 1 ml/kg via a tube with which the right jugular vein of guinea pigs was cannulated.
Each test compound was suspended in 0.5% CMC-Na solution and administered orally with an oral sound at a dose of 0.03 to 20 mg/2 ml/kg 60 minutes prior to the antigen-challenge. Control groups received only 0.5% CMC-Na solution in an equivalent amount. The pentobarbital-anesthetization and tracheal incision were conducted 30 minutes prior to the antigen-challenge.
Each percent reduction of increase in airway resistance (each test compound-administered group versus control group) was calculated according to the equation given below. ED50 was obtained by Probit method.

[2] = tested on: lung neutrophil infiltration; assay: Inhibition of lung neutrophil infiltration (LPS inhalation, BALF); type: in vivo, Hartley guinea-pigs; settings: Cavia porcellus, guinea-pigs, oral, 1 hour before LPS inhalation, BALF neutrophils at 24 hours, read-out: Inhibition of Lung Neutrophil Infiltration ED50: mg/kg orally
Protocol: Hartley guinea-pigs were orally received a suspension of test compounds at a dose of 0.03 to 3 mg/2 mL/kg. One hour later, the animals were received 0.1 mg/mL lipopolylsaccharide (LPS) in a physiological saline via an inhalational route with a nebulizer for 30 minutes. Twenty-four hours after the LPS inhalation, BALF samples were collected, and neutrophils were counted.

CYP3A4 = target: T1, CYP3A4 (Homo sapiens, UniProt P08684); assay: Inhibition of drug-metabolizing enzyme CYP3A4 (CYP3A4/BFC kit); type: in vitro ADME; settings: CYP3A4-expressing microsomes, BFC substrate, 37° C., 30 minutes; read-out: Inhibition of Drug-Metabolizing Enzymes (IC50; μM) CYP3A4
T1 construct: purchased BD Biosciences, NJ, USA; host or cells: CYP3A4-expressing system microsomes
Protocol: (§1) The inhibitory effect on CYP2D6 and CYP3A4 was determined using High Throughput Inhibitor Screening Kits: CYP2D6/AMMC and CYP3A4/BFC (both from BD Biosciences, NJ, USA). Briefly, each of NADPH regenerating systems, cofactors, and test compounds was dispensed into 96-well plates, followed by addition of each of fluorescent substrates, AMMC (CYP2D6) or BFC (CYP3A4). To each well were added CYP2D6-expressing system microsomes or CYP3A4-expressing system microsomes, and the plates were incubated at 37° C. for 30 minutes, and then read for fluorescent signals (CYP2D6: ex=390 nm, em=460 nm; CYP3A4: ex=409 nm, em=538 nm wherein excitation wavelength: ex and emission wavelength: em). Thus, each inhibitory efficacy on enzymes CYP2D6 and CYP3A4 was determined. Roflumilast was used for the reference compound in this assay.

Beagle dogs = assay: Emetic action on dogs; type: in vivo; settings: oral, 1 mg/kg
Protocol: Beagle dogs received a suspension of each test compound in 0.5% CMC-Na solution orally at a dose of 1 mg/2 mL/kg.

[3] = tested on: lung eosinophil infiltration; assay: Inhibition of lung eosinophil infiltration (OVA-sensitized, BALF); type: in vivo, Hartley guinea-pigs; settings: Cavia porcellus, guinea-pigs, oral, 1 hour before OVA inhalation, BALF eosinophils at 24 hours, read-out: Inhibition of Lung Eosinophil Infiltration ED50: mg/kg orally
Protocol: Hartley guinea-pigs were sensitized by inhaling twice 1% ovalbumin (OVA) in a physiological saline for 10 minutes with a nebulizer (Atom Medical Corporation, Japan) at an interval of 1 week. The animals were orally given a suspension of test compounds at a dose of 0.03 to 3 mg/2 mL/kg one week after the final sensitization. One hour later, the animals were exposed to antigens by inhalation of 2% OVA in a physiological saline for 5 minutes with a nebulizer. Thirty minutes before the antigen challenge, the animals were intraperitoneally pretreated with pyrilamine at a dose of 10 mg/kg to avoid fatality due to anaphylactic shock. Bronchoalveolar lavage fluid (BALF) samples were collected 24 hours after the exposure by inhalation of antigens, and eosinophils were counted.

TNF-α production = assay: Inhibition of TNF-α production in galactosamine- and LPS-stimulation; type: in vivo; settings: Mus musculus; C3H/HeN mice, oral, 1 hour before galactosamine/LPS i.v.; serum TNF-α by ELISA 1 hour later; read-out: Inhibition of TNF-α production ED50: mg/kg orally
Protocol: A suspension of each test compound in 0.5% CMC-Na solution was administered orally to C3H/HeN mice at a dose of 0.10 to 10 mg/kg. One hour later, the animals received intravenously galactosamine at a dose of 800 mg/kg and LPS at a dose 5 μg/kg to raise the induction of TNF-α production. One hour later after the galactosamine- and LPS-administration, amounts of TNF-α in serum samples were measured by ELISA, and ED50 was obtained. Roflumilast and SB207499 were used for the reference compounds in this assay.

CYP2D6 = target: T2, CYP2D6 (Homo sapiens, UniProt P10635); assay: Inhibition of drug-metabolizing enzyme CYP2D6 (CYP2D6/AMMC kit); type: in vitro ADME; settings: CYP2D6-expressing microsomes, AMMC substrate, 37° C., 30 minutes; read-out: Inhibition of Drug-Metabolizing Enzymes (IC50; μM) CYP2D6
T2 construct: purchased BD Biosciences, NJ, USA; host or cells: CYP2D6-expressing system microsomes
Protocol: as §1

T1 sequence (P08684 whole entry): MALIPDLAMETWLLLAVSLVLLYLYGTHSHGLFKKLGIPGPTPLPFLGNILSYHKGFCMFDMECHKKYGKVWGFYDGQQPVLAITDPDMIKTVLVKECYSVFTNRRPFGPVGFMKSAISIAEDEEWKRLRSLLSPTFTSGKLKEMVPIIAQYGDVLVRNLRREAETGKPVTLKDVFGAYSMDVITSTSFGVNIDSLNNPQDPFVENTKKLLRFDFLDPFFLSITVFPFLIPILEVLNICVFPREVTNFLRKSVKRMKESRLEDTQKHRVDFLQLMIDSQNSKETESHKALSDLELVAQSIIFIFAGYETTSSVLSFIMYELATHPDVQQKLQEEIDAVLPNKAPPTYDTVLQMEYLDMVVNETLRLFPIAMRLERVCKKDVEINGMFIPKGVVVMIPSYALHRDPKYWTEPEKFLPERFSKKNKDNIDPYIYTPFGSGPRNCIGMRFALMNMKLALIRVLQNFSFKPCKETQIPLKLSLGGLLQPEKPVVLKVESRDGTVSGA
T2 sequence (P10635 whole entry): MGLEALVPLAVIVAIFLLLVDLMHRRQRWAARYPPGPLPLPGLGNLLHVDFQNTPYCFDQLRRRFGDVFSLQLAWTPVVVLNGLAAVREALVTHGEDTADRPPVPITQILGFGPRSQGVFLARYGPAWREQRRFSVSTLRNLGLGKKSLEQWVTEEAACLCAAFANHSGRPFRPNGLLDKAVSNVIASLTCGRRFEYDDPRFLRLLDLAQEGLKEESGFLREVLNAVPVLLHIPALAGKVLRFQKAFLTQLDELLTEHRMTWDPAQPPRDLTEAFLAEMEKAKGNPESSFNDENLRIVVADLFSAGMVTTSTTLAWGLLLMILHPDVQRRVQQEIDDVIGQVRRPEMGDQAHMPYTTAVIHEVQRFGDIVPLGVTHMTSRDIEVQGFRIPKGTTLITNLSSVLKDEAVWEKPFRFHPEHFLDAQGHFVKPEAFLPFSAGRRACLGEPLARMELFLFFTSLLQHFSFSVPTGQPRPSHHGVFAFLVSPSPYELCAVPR

SMILES	ED50 [1]	ED50 [2]	IC50 (CYP3A4)	Occurrence of emesis (Beagle dogs)	ED50 [3]	ED50 (TNF-α production)	IC50 (CYP2D6)
COc1ccc(C2CNC(=O)C2)cc1OC1CCCC1 (single isomer, unassigned; (-)) [Rolipram, (−)-4-[3-(cyclopentyloxy)-4-methoxyphenyl]-2-pyrrolidinone]	0.51 mg/kg						
O=C(Nc1c(Cl)cncc1Cl)c1ccc(OC(F)F)c(OCC2CC2)c1 [Roflumilast, 3-(cyclopropylmethoxy)-N-(3,5-dichloro-4-pyridyl)-4-(difluoromethoxy)benzamide, reference compound]	0.66 mg/kg	0.98 mg/kg	0.98 µM	2 animals among 3 were afflicted with emetic reactions	0.36 mg/kg	0.26 mg/kg	9.1 µM
COc1ccc([C@]2(C#N)CC[C@@H](C(=O)O)CC2)cc1OC1CCCC1 [SB207499, cis-4-cyano-4-[3-(cyclopentyloxy)-4-methoxyphenyl]cyclohexane-1-carboxylic acid, reference compound]	> 20 mg/kg					3.3 mg/kg	
